Measured values taken from patent US8598356B2, “Heteroaryl-substituted urea modulators of fatty acid amide hydrolase” (Janssen Pharmaceutica NV, priority 2008, dated 2013).

Columns and labels:
Human FAAH = biological target: T1, Human FAAH (Homo sapiens, UniProt O00519); assay: Assay Method 1: FAAH assay, hydrolysis of 3H-anandamide by cell homogenate; format: biochemical; conditions: T84 or transfected SK-N-MC cell homogenate, 3H-AEA 80 nM, rt 1 h, average of results obtained
T1 construct: expressed in transfected cells; alternatively T84 frozen cell pellets
T1 sequence (O00519 1-579): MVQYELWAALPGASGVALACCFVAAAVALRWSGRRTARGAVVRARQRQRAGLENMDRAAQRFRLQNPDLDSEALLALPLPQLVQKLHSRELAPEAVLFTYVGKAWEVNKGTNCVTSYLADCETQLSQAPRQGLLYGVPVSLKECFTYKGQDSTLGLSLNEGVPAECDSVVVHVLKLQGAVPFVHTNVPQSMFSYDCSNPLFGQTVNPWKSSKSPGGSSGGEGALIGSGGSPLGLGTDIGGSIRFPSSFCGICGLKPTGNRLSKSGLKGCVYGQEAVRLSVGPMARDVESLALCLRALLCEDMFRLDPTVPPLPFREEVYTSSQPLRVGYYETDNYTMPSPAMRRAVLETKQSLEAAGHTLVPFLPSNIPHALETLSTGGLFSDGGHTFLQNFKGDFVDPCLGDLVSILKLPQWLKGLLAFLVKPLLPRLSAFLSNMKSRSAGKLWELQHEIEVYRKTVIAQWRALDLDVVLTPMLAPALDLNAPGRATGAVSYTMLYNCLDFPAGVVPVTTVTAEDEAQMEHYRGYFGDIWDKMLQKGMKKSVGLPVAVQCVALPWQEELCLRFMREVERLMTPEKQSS
Description: A. Transfection of Cells with Human FAAH
(§1) A 10-cm tissue culture dish with a confluent monolayer of SK-N-MC cells was split 2 days (d) prior to transfection. Using sterile technique, the media was removed and the cells were detached from the dish by the addition of trypsin. One fifth of the cells were then placed onto a new 10-cm dish. Cells were grown in a 37° C. incubator with 5% CO2 in Minimal Essential Media Eagle with 10% Fetal Bovine Serum. After 2 d, cells were approximately 80% confluent. These cells were removed from the dish with trypsin and pelleted in a clinical centrifuge. The pellet was re-suspended in 400 μL complete media and transferred to an electroporation cuvette with a 0.4 cm gap between the electrodes. Supercoiled human FAAH cDNA (1 μg) was added to the cells and mixed. The voltage for the electroporation was set at 0.25 kV, and the capacitance was set at 960 μF. After electroporation, the cells were diluted into complete media (10 mL) and plated onto four 10-cm dishes. Because of the variability in the efficiency of electroporation, four different concentrations of cells were plated. The ratios used were 1:20, 1:10, and 1:5, with the remainder of the cells being added to the fourth dish. The cells were allowed to recover for 24 h before adding the selection media (complete media with 600 μg/mL G418). After 10 d, dishes were analyzed for surviving colonies of cells. Dishes with well-isolated colonies were used. Cells from individual colonies were isolated and tested.
(§2) T84 frozen cell pellets or transfected SK-N-MC cells (contents of 1×15 cm culture dishes) were homogenized in 50 mL of FAAH assay buffer (125 mM Tris, 1 mM EDTA, 0.2% Glycerol, 0.02% Triton X-100, 0.4 mM Hepes, pH 9). The assay mixture consisted of 50 μL of the cell homogenate, 10 μL of the test compound, and 40 μL of anandamide [1-^3H-ethanolamine] (^3H-AEA, Perkin-Elmer, 10.3 Ci/mmol), which was added last, for a final tracer concentration of 80 nM. The reaction mixture was incubated at rt for 1 h. During the incubation, 96-well Multiscreen filter plates (catalog number MAFCNOB50; Millipore, Bedford, Mass., USA) were loaded with 25 μL of activated charcoal (Multiscreen column loader, catalog number MACL09625, Millipore) and washed once with 100 μL of MeOH. Also during the incubation, 96-well DYNEX MicroLite plates (catalog number NL510410) were loaded with 100 μL of MicroScint40 (catalog number 6013641, Packard Bioscience, Meriden, Conn., USA). After the 1 h incubation, 60 μL of the reaction mixture were transferred to the charcoal plates, which were then assembled on top of the DYNEX plates using
Centrifuge Alignment Frames (catalog number MACF09604, Millipore). The unbound labeled ethanolamine was centrifuged through to the bottom plate (5 min at 2000 rpm), which was preloaded with the scintillant, as described above. The plates were sealed and left at rt for 1 h before counting on a Hewlett Packard TopCount.
(§3) Results for compounds tested in these assays are summarized in Table 1, as an average of results obtained. Compounds were tested in free base, hydrochloride salt, and/or trifluoroacetic acid salt forms. Where activity is shown as greater than (>) a particular value, the value is the solubility limit of the compound in the assay medium or the highest concentration tested in the assay.

Rat FAAH = biological target: T2, Rat FAAH (Rattus norvegicus, UniProt P97612); assay: Assay Method 2: FAAH assay, hydrolysis of 3H-anandamide by cell homogenate; format: biochemical; conditions: T84 or transfected SK-N-MC cell homogenate, 3H-AEA 80 nM, rt 1 h, average of results obtained
T2 construct: expressed in transfected cells
T2 sequence (P97612 1-579): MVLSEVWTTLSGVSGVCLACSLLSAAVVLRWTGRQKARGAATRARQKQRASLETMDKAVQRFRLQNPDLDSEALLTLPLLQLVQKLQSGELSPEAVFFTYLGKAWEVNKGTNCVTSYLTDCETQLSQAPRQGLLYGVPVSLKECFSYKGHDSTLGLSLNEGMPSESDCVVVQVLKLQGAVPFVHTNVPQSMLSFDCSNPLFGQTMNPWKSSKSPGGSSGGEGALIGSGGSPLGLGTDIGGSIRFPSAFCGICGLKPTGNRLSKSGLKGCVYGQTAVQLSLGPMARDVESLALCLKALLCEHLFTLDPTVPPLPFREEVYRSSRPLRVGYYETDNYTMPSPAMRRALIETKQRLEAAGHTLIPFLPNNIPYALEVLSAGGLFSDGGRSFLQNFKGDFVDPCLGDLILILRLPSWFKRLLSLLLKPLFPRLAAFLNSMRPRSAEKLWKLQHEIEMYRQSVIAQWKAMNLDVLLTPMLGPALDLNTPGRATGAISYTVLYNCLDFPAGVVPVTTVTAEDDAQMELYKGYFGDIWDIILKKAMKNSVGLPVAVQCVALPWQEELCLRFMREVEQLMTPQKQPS
Description: A. Transfection of Cells with Rat FAAH
as §1, with “rat” for “human”, “[…]” for “960 μF.”
as §2, with “25” for “25 μL”, “using Centrifuge Alignment Frames (catalog number MACF09604, Millipore). The unbound labeled ethanolamine was centrifuged through to the bottom plate (5 min at 2000 rpm), which was preloaded with the scintillant, as described above. The plates were sealed and left at rt for 1 h before counting on a Hewlett Packard TopCount.” for “using”
as §3

SMILES	IC50 (Human FAAH) [µM]	IC50 (Rat FAAH) [µM]
O=C(Nc1cccnc1)N1CCCC(Cc2cccc(Oc3ccc(Cl)cc3)c2)C1 (single isomer, unassigned; (+)) [Example 13, (+)-3-[3-(4-Chloro-phenoxy)-benzyl]-piperidine-1-carboxylic acid pyridin-3-ylamide]	0.019	0.031
O=C(Nc1ccon1)N1CCCC(Cc2cccc(C(F)(F)F)c2)C1 (stereo not drawn) [Example 9, N-Isoxazol-3-yl-3-{[3-(trifluoromethyl)phenyl]methyl}piperidine-1-carboxamide]	7	9
O=C(Nc1cccnc1)N1CCCC(Cc2cccc(Oc3ccc(F)cc3)c2)C1 (stereo not drawn) [Example 10, 3-[3-(4-Fluorophenoxy)benzyl]-N-pyridin-3-ylpiperidine-1-carboxamide]	0.018	0.019
O=C(Nc1ccon1)N1CCCC(Cc2ccc(C(F)(F)F)cc2)C1 (stereo not drawn) [Example 8, N-Isoxazol-3-yl-3-{[4-(trifluoromethyl)phenyl]methyl}piperidine-1-carboxamide]	10	> 10
O=C(Nc1cccnc1)N1CCCC(Cc2ccc(OC(F)(F)F)cc2)C1 (stereo not drawn) [Example 19, 3-(4-Trifluoromethoxy-benzyl)-piperidine-1-carboxylic acid pyridin-3-ylamide]	0.43	1.6
O=C(Nc1cccnc1)N1CCCC(Cc2cnc3ccccc3c2)C1 (stereo not drawn) [Example 16, 3-Quinolin-3-ylmethyl-piperidine-1-carboxylic acid pyridin-3-ylamide]	1	> 10
O=C(Nc1cccnc1)N1CCCC(Cc2cccc(Oc3ccc(Cl)cc3)c2)C1 (single isomer, unassigned; (-)) [Example 14, (−)-3-[3-(4-Chloro-phenoxy)-benzyl]-piperidine-1-carboxylic acid pyridin-3-ylamide]	0.073	0.027
O=C(Nc1cccnc1)N1CCCC(Cc2cccc(Oc3ccc(OC(F)(F)F)cc3)c2)C1 (stereo not drawn) [Example 15, 3-[3-(4-Trifluoromethoxy-phenoxy)-benzyl]-piperidine-1-carboxylic acid pyridine-3-ylamide]	0.011	0.017
O=C(Nc1cccnc1)N1CCCC(Cc2ccc3c(c2)OC(F)(F)O3)C1 (stereo not drawn) [Example 1, 3-(2,2-Difluoro-benzo[1,3]dioxol-5-ylmethyl)-piperidine-1-carboxylic acid pyridin-3-ylamide]	0.41	0.604
O=C(Nc1ccncn1)N1CCCC(Cc2cccc(C(F)(F)F)c2)C1 (stereo not drawn) [Example 3, N-Pyrimidin-4-yl-3-{[3-(trifluoromethyl)phenyl]methyl}piperidine-1-carboxamide]	8	10
O=C(Nc1noc2ccccc12)N1CCCC(Cc2cccc(C(F)(F)F)c2)C1 (stereo not drawn) [Example 6, N-1,2-Benzisoxazol-3-yl-3-{[3-(trifluoromethyl)-phenyl]-methyl}-piperidine-1-carboxamide]	0.645	0.05
O=C(Nc1noc2ccccc12)N1CCCC(Cc2ccc(C(F)(F)F)cc2)C1 (stereo not drawn) [Example 5, N-1,2-Benzisoxazol-3-yl-3-{[4-(trifluoromethyl)-phenyl]-methyl}-piperidine-1-carboxamide]	2	0.183
O=C(Nc1ccncn1)N1CCCC(Cc2ccc(C(F)(F)F)cc2)C1 (stereo not drawn) [Example 2, N-Pyrimidin-4-yl-3-{[4-(trifluoromethyl)phenyl]methyl}piperidine-1-carboxamide]	8	> 10
O=C(Nc1cnc2cccnn12)N1CCCC(Cc2cccc(Oc3ccc(F)cc3)c2)C1 (stereo not drawn) [Example 12, 3-[3-(4-Fluoro-phenoxy)-benzyl]-piperidine-1-carboxylic acid imidazo[1,2-b]pyridazin-3-ylamide]	0.056	0.007
O=C(Nc1noc2ccccc12)N1CCCC(Cc2ccc(F)cc2)C1 (stereo not drawn) [Example 7, N-1,2-Benzisoxazol-3-yl-3-[(4-fluorophenyl)methyl]piperidine-1-carboxamide]	2	0.152
